Assay results: patent publication US7005297B2, “Use of neuroactive compounds” (Council of Scientific and Industrial Research, priority 2003, dated 2006)
Marks after values point to notes of the source that are not given here.

Assays:
Drosophila melanogaster [1] = assay: negative geotaxis assay, height climbed by individual flies; assay type: in vivo
Procedure: (§1) Unless otherwise mentioned, standard methods of fly manipulation were followed. Standard fly medium consisting of agar-agar, maize powder, brown sugar, dried yeast and nipagin was used. Flies were cultured at 22±1° C., 60% RH, and 12 hrs light (9 AM to 9 PM) and 12 hours dark cycle. D. melanogaster wild type Oregon-R strain was used in the experiment. To obtain males for control and drug treatment, flies from identical cultures grown in glass vials were first allowed to lay eggs in milk bottles containing medium. Flies were shifted to fresh bottles every 12 hr. First 4 sets of bottles were discarded. Flies that emerged in subsequent bottles were only used. Those that emerged in the beginning were first discarded and then flies were collected twice at 12 hr interval. Flies collected each time were kept separately in a single bottle. Two days after first collection, males and females from both the bottles were separated. Males were then pooled together and shifted to a new bottle. Flies were used for control or drug treatment two days later.
Following morning after pooling males for treatment, drugs (Sigma-Aldrich Co, St. Louis, U.S.A.) were first dissolved in distilled water at following concentration: 33.3 mg/ml of strychnine (STR), 40 mg/ml of pentylenetetrazol (PTZ), 20 mg/ml of tetraethylammonium chloride (TEA), 10 mg/ml of lithium […] (LICA) and 2 mg/ml of nicotine (NICO). Appropriate volume of freshly made drug solutions were then poured in molten fly media, and mixed thoroughly, to achieve a final concentration of 3.33 mg/ml of STR, 4 mg/ml of PTZ, 2 mg/ml of TEA, 1 mg/ml of LICA, and 0.2 mg/ml of NICO. For control, i.e., normal food (NF), distilled water of same volume as drug solution was added in the medium and mixed. Following this, the molten media was dispensed in glass vials, stored overnight at 4° C. and then used for above treatment of flies. Thirty male flies were shifted to each of the […] treatment vials, NF, STR, PTZ, TEA, LICA and NICO. Flies were maintained at 22±1° C., 60% RH, and 12 hrs light (9 AM to 9 PM) and 12 hours dark cycle.
On 22nd day of the beginning of drug treatment, three males from each treatment were separately mated to a single virgin female each. The females were grown on NF and were never exposed to any drug at any time. The F1 progenies resulting from each pair mating were pooled together before being further used. F2 generation was obtained through mating in mass the F1 progenies. F1 to F2 flies were never exposed to any drug at any time.
Negative geotaxis assays for measuring height climbed and climbing speed, and horizontal locomotion assay for measuring distance walked—were performed at room temperature, between 9 AM to 9 PM. They were all performed at a specified area in a room, where same light sources were always used. While measuring various locomotor activities, extreme care was taken to ensure that the room is quiet, and the table onto which assays were performed undisturbed and vibration free. Utmost care was taken to ensure identical handling of flies, in minutest details. For measuring height climbed, climbing speed and distance walked, a single fly was randomly selected at a time. This was achieved by first inverting flies from a given treatment vial into an empty vial and then continuously and gently shaking and inverting both the vials in such a way that a single fly is finally trapped in the empty vial. Once trapped, all the three locomotor activities were measured using the same fly, height climbed, climbing speed and distance walked, in that order. One fly each from NF, STR, PTZ, PILO, TEA, LICA, and ESD, selected randomly, was first scored and then the same exercise was repeated for another two flies. Once a fly was scored for all the three locomotor activities, it was discarded. Flies were particularly checked for intact legs and wings, before they were used in negative geotaxis and horizontal locomotion assays.

Drosophila melanogaster [2] = details: F1 male and female progeny of drug-fed fathers, routine examination over 30 days
Procedure: as §1
Following morning after pooling males for treatment, drugs (Sigma-Aldrich Co, St. Louis, U.S.A.) were first dissolved in distilled water at following concentration: 33.3 mg/ml of strychnine (STR), 40 mg/ml of pentylenetetrazol (PTZ), 20 mg/ml of tetraethylammonium chloride (TEA), 10 mg/ml of lithium chloride (LICA) and 2 mg/ml of nicotine (NICO). […]

[3] = F1 males never exposed to drug, fathers drug-fed, assayed on 31st day of emergence, n=30, NF control 25.1
[4] = F2 females (second batch) never exposed to drug, grandfathers drug-fed, 8th day of emergence, n=30, NF control 21.3
[5] = drug exposed parent males, day 13 of treatment
[6] = drug-fed parent males, day 13 of treatment, drug in fly medium (STR 3.33, PTZ 4, TEA 2, LICA 1, NICO 0.2 mg/ml), n=30, NF control 20.86, asterisks = t-test vs NF (*5%, **1%, ***0.1%)

Structure (SMILES) | Height climbed by flies, Mean (F1) (Drosophila melanogaster [1]; [3]) | Height climbed by flies, Mean (F2) (Drosophila melanogaster [1]; [4]) | change in height climbed compared to normal food (NF) (Drosophila melanogaster [1]; [5]) | Height climbed by flies, Mean (Parents) (Drosophila melanogaster [1]; [6]) | gross locomotor activity compared to control (Drosophila melanogaster [2]) | Height climbed by flies, Mean (F1) (Drosophila melanogaster [1]; in vivo) | Height climbed by flies, Mean (F2) (Drosophila melanogaster [1]; in vivo) | Height climbed by flies, Mean (Parents) (Drosophila melanogaster [1]; in vivo) | change in height climbed compared to normal food (NF) (Drosophila melanogaster [1]; in vivo)
CC[N+](CC)(CC)CC.[Cl-] [TEA, tetraethylammonium chloride] | 12.43*** cm | 29.46*** cm | increase in the height climbed | 32.4*** cm |  |  |  |  | 
C1CCc2nnnn2CC1 [PTZ, pentylenetetrazol] |  |  | increase in the height climbed |  |  |  |  |  | 
O=C([O-])[O-].[Li+].[Li+] [LICA, lithium carbonate] | 17.7*** cm | 27.53** cm | increase in the height climbed | 32.96*** cm |  |  |  |  | 
CN1CCCC1c1cccnc1 (centres unmarked) [NICO, nicotine] |  |  |  |  | climbed very slowly | 10.86*** cm | 29.36*** cm | 32.16*** cm | increase in the height climbed
O=C1C[C@@H]2OCC=C3CN4CC[C@]56c7ccccc7N1[C@H]5[C@H]2[C@H]3C[C@H]46 [STR, strychnine] | 16.56*** cm | 29.83*** cm |  | 28** cm |  |  |  |  | 
